From patent US11390591B2, “2,4,6-trisubstituted s-triazine compound, preparation method therefor, and use thereof” (Aluda Pharmaceuticals, Inc., priority 2016, dated 2022)
Where two headings read alike, the source gives them in different places.

Tests used:
Type in all cases: cell-based
[1] = system: cell lines of human non-small cell lung cancer (H522); assay: In vitro antineoplastic activity, MTT experiment, H522; conditions: H522 cells, 48 hours, highest concentration tested 31.6 μM (>30: inhibition rate <50%)
Protocol: (§1) MTT, RPM1640 culture medium, fetal bovine serum, 96-well plate, CO2 thermostatic incubator, American BIO-RAD680 microplate reader, cell lines of human non-small cell lung cancer (H522), and cell lines of human brain glioma (U87) were all obtained commercially.
(§2) (1) Cell inoculation: A single cell suspension was prepared with culture media supplemented with 10% fetal bovine serum, plated into a 96-well plate with 5000 cells per well, each well having a volume of 100 μL, and cultured overnight.
(§3) (2) Preparation of compound solutions: a DMSO stock solution of a compound was diluted on a sterile bench with a culture medium into 5 concentrations to be tested, wherein a double dilution was employed between two adjacent concentrations.
(§4) (3) The compound solutions of various concentrations were added into the 96-well plate cultured overnight, with 100 μL added per well, triplicated wells for each concentration. Since the peripheral wells can have edge effect and are susceptible to contamination, no cells or compounds were added thereto; instead, 100 μL culture solution was added as a blank. Additionally, 100% wells were set to contain the cells and 100 μL culture media without any compound. The plates were incubated in a thermostatic incubator at 37° C. for 48 hours.
(§5) (4) Staining: 10 μL MTT solution (5 mg/mL, prepared with PBS) was added into the 96-well plate for staining. After incubation for 4 hours, centrifugation was performed at 2500 rpm for 10 minutes. Then, a multiple pipette was used to suck the culture solution out of the wells carefully without sucking out the cells while the pipette tip faced downward. 150 μL DMSO was added and shaken on a shaker for 5-10 minutes. Crystals were allowed to dissolve fully, and an OD value for each well was measured using the microplate reader at 570 nm. The inhibition rate was calculated as follows: Inhibition rate (%)=(average OD value of 100% wells−average OD value of compound wells)/(average OD value of 100% wells−average OD value of blank wells)×100%

[2] = system: cell lines of human brain glioma (U87); assay: In vitro antineoplastic activity, MTT experiment, U87
Protocol: as §1, §2, §3, §4, §5

human glioma U87 cells = assay: Tumor cell vacuolization (methuosis) scoring, U87; parameters: key to Vacuolation Score: 5 scores were given when obvious vacuolization occurred at 10 nM; 4 scores at 31.6 nM; 3 scores at 100 nM; 2 scores at 316 nM; 1 score at 1000 nM; 0 score was given if no vacuolation occurred at any concentration; conditions: U87 cells, 0.01-3.160 μM, 96 hours, microscope
Protocol: FIG. 2. Vacuolization of tumor cells. 100 microliter culture medium (RPMI1640, 2 mmol glutamine, 10% fetal bovine serum) containing 10^3 human colon adenocarcinoma cells (HCT15) or human brain glioma cells (U87) and a solvent DMSO control or 100 nM #40 compound (L16) was plated into a 96-well cell culture plate, and cell morphological image was taken under a phase contrast microscope after cultured at 5% CO2 and 37° C. for 96 hours.
Some cells gradually became round and eventually bursted. These changes are consistent with the features of cell death by methuosis (FIG. 2).
In order to compare the ability of different compounds to cause cell vacuolization, 100 μL culture media (RPMI1640, 2 mmol glutamine, 10% fetal bovine serum) comprising 10^3 human glioma U87 cells and final concentrations of 0.01, 0.0316, 0.1, 0.316, 1.0, 3.160 μM respectively of the compounds to be tested were inoculated into a 96-well culture plate. After cultured at 5% CO2 and 37° C. for 96 hours, cell morphology was observed under a high-magnification microscope, and the ability of the compounds to cause cell vacuolization was scored. 5 scores were given when obvious vacuolization occurred at 10 nM, 4 scores at 31.6 nM, 3 scores at 100 nM, 2 scores at 316 nM, 1 score at 1000 nM, and 0 score was given if no vacuolation occurred at any concentration.

[3] = U87 cells, MTT, 48 hours, highest concentration tested 31.6 μM, read-out: IC50(μM) U87
[4] = ability to inhibit cell proliferation, U87 (FIG. 3), unit inferred, read-out: IC50

Structure (SMILES) | IC50 [1] | IC50 [2, 3] | IC50 [2, 4] | Vacuolation Score (human glioma U87 cells)
CN1CCN(c2nc(/C=C/c3cccc(Cl)c3)nc(Nc3ccc(NC(=O)Nc4ccc(Cl)cc4)cc3)n2)CC1 [L8, (E)-1-(4-chlorophenyl)-3-(4-(4-(4-methylpiperazin-1-yl)-6-(3-chlorostyrenyl)-1,3,5-triazinyl-2-amino)phenyl)urea] | 1.82 ± 0.09 µM | 1.21 ± 0.16 µM | 1.21 µM | 0
CN1CCN(c2nc(/C=C/c3ccccc3)nc(Nc3cccc(NC(=O)Nc4ccc(Cl)cc4)c3)n2)CC1 [L24, (E)-1-(4-chlorophenyl)-3-(3-(4-(4-methylpiperazin-1-yl)-6-styrenyl-1,3,5-triazinyl-2-amino)phenyl)urea] | 4.03 ± 0.65 µM | 4.4 ± 0.88 µM | 4.4 µM | 0
CN1CCN(c2nc(/C=C/c3ccccc3)nc(Nc3ccc(NC(=O)Nc4ccc(Cl)cc4)cc3)n2)CC1 [L3, (E)-1-(4-chlorophenyl)-3-(4-(4-(4-methylpiperazin-1-yl)-6-styrenyl-1,3,5-triazinyl-2-amino)phenyl)urea] | > 30 µM | 10.6 ± 1.2 µM | > 10 µM | 0
O=C(Nc1ccc(Nc2nc(/C=C/c3ccccc3)nc(N3CCOCC3)n2)cc1)Nc1ccc(C(=O)NCCN2CCOCC2)cc1 [L37, (E)-N-(2-(morpholin-1-yl)ethyl)-4-(3-(4-(4-(morpholin-1-yl)-6-styrenyl-1,3,5-triazinyl-2-amino)phenyl)urea)benzamide] | 5.19 ± 1.48 µM | 0.55 ± 0.05 µM | 0.82 µM | 3.5
CN1CCN(c2nc(/C=C/c3ccc(Cl)cc3)nc(Nc3ccc(NC(=O)Nc4ccc(F)cc4)cc3)n2)CC1 [L14, (E)-1-(4-fluorophenyl)-3-(4-(4-(4-methylpiperazin-1-yl)-6-(4-chlorostyrenyl)-1,3,5-triazinyl-2-amino)phenyl)urea] | 5.03 ± 0.49 µM | 2.48 ± 0.11 µM | 2.48 µM | 0
CN1CCN(c2nc(/C=C/c3ccc(Cl)cc3)nc(Nc3ccc(NC(=O)Nc4cccc(F)c4)cc3)n2)CC1 [L15, (E)-1-(3-fluorophenyl)-3-(4-(4-(4-methylpiperazin-1-yl)-6-(4-chlorostyrenyl)-1,3,5-triazinyl-2-amino)phenyl)urea] | 4.26 ± 0.1 µM | 2.92 ± 0.21 µM | 2.91 µM | 0
CN(C)C(=O)c1ccc(NC(=O)Nc2ccc(Nc3nc(/C=C/c4ccccc4)nc(N4CCOCC4)n3)cc2)cc1 [L29, (E)-N,N-dimethyl-4-(3-(4-(4-(morpholin-1-yl)-6-styrenyl-1,3,5-triazinyl-2-amino)phenyl)urea)benzamide] | 6.51 ± 0.94 µM | 0.53 ± 0.02 µM | 0.75 µM | 3.5
CN1CCN(C(=O)c2ccc(NC(=O)Nc3ccc(Nc4nc(/C=C/c5ccccc5)nc(N5CCOCC5)n4)cc3)cc2)CC1 [L31, (E)-1-(4-((4-methylpiperazin-1-yl)formyl)phenyl)-3-(4-(4-(morpholin-1-yl)-6-styrenyl-1,3,5-triazinyl-2-amino)phenyl)urea] | 1.05 ± 0.04 µM | 0.23 ± 0.01 µM | 0.22 µM | 2.5
O=C(Nc1ccc(Cl)cc1)Nc1ccc(Nc2nc(/C=C/c3cccc([N+](=O)[O-])c3)nc(N3CCCC3)n2)cc1 [L21, (E)-1-(4-chlorophenyl)-3-(4-(4-(pyrrolidin-1-yl)-6-(3-nitrostyrenyl)-1,3,5-triazinyl-2-amino)phenyl)urea] | 7.3 ± 0.75 µM | 4.47 ± 0.39 µM | 4.47 µM | 0

Further lines, with some results ahead:

IC50 [1] | IC50 [2, 3] | IC50 [2, 4] | Structure (SMILES) | Vacuolation Score (human glioma U87 cells)
2.8 ± 0.21 µM | 4.75 ± 0.87 µM | 4.74 µM | O=C(Nc1ccc(F)cc1)Nc1ccc(Nc2nc(/C=C/c3ccccc3)nc(N3CCOCC3)n2)cc1 [L2, (E)-1-(4-fluorophenyl)-3-(4-(4-(morpholin-1-yl)-6-styrenyl-1,3,5-triazinyl-2-amino)phenyl)urea] | 4.5
1.42 ± 0.12 µM | 1.33 ± 0.13 µM | 1.32 µM | O=C(Nc1ccc(F)cc1)Nc1ccc(Nc2nc(/C=C/c3cccc(Cl)c3)nc(N3CCOCC3)n2)cc1 [L7, (E)-1-(4-fluorophenyl)-3-(4-(4-(morpholin-1-yl)-6-(3-chlorostyrenyl)-1,3,5-triazinyl-2-amino)phenyl)urea] | 4 (4 scores at 31.6 nM)
1.34 ± 0.22 µM | 1.62 ± 0.09 µM | 1.8 µM | CN1CCN(c2nc(/C=C/c3cccc([N+](=O)[O-])c3)nc(Nc3ccc(NC(=O)Nc4ccc(F)cc4)cc3)n2)CC1 [L19, (E)-1-(4-fluorophenyl)-3-(4-(4-(4-methylpiperazin-1-yl)-6-(3-nitrostyrenyl)-1,3,5-triazinyl-2-amino)phenyl)urea] | 0
0.3 ± 0.03 µM | 2.5 ± 0.08 µM | 2.5 µM | O=C(Nc1ccc(F)cc1)Nc1ccc(Nc2nc(/C=C/c3ccc(Cl)cc3)nc(N3CCOCC3)n2)cc1 [L11, (E)-1-(4-fluorophenyl)-3-(4-(4-(morpholin-1-yl)-6-(4-chlorostyrenyl)-1,3,5-triazinyl-2-amino)phenyl)urea] | 2 (2 scores at 316 nM)
3.88 ± 0.65 µM | 1.47 ± 0.12 µM | 1.47 µM | CN1CCN(c2nc(/C=C/c3cccc(Cl)c3)nc(Nc3ccc(NC(=O)Nc4ccc(F)cc4)cc3)n2)CC1 [L9, (E)-1-(4-fluorophenyl)-3-(4-(4-(4-methylpiperazin-1-yl)-6-(3-chlorostyrenyl)-1,3,5-triazinyl-2-amino)phenyl)urea] | 2 (2 scores at 316 nM)
1.92 ± 0.19 µM | 1.19 ± 0.07 µM | 1.19 µM | CN1CCN(c2nc(/C=C/c3ccccc3)nc(Nc3ccc(NC(=O)Nc4ccc(F)cc4)cc3)n2)CC1 [L4, (E)-1-(4-fluorophenyl)-3-(4-(4-(4-methylpiperazin-1-yl)-6-styrenyl-1,3,5-triazinyl-2-amino)phenyl)urea] | 0
1.27 ± 0.08 µM | 1.32 ± 0.22 µM | 1.33 µM | O=C(Nc1ccc(Cl)cc1)Nc1ccc(Nc2nc(/C=C/c3cccc([N+](=O)[O-])c3)nc(N3CC(O)C3)n2)cc1 [L22, (E)-1-(4-chlorophenyl)-3-(4-(4-(3-hydroxyazetidin-1-yl)-6-(3-nitrostyrenyl)-1,3,5-triazinyl-2-amino)phenyl)urea] | 0
2.55 ± 0.12 µM | 4.41 ± 0.43 µM | 4.43 µM | O=C(Nc1ccc(Nc2nc(/C=C/c3ccc(Cl)cc3)nc(N3CCOCC3)n2)cc1)Nc1cccc(F)c1 [L12, (E)-1-(3-fluorophenyl)-3-(4-(4-(morpholin-1-yl)-6-(4-chlorostyrenyl)-1,3,5-triazinyl-2-amino)phenyl)urea] | 2 (2 scores at 316 nM)
1.53 ± 0.22 µM | 1.49 ± 0.22 µM | 1.5 µM | CN1CCN(c2nc(/C=C/c3cccc([N+](=O)[O-])c3)nc(Nc3cccc(NC(=O)Nc4ccc(Cl)cc4)c3)n2)CC1 [L28, (E)-1-(4-chlorophenyl)-3-(3-(4-(4-methylpiperazin-1-yl)-6-(3-nitrostyrenyl)-1,3,5-triazinyl-2-amino)phenyl)urea] | 0
> 30 µM | 1.11 ± 0.1 µM | 1.19 µM | O=C(Nc1ccc(F)cc1)Nc1ccc(Nc2nc(/C=C/c3cccc([N+](=O)[O-])c3)nc(N3CCOCC3)n2)cc1 [L17, (E)-1-(4-fluorophenyl)-3-(4-(4-(morpholin-1-yl)-6-(3-nitrostyrenyl)-1,3,5-triazinyl-2-amino)phenyl)urea] | 3.5
